Laboratory results from article PMC7001764 (Cell reports, 2020).

T1: CAPN5-PC (calpain-5 protease core) (Homo sapiens, UniProt O15484)
T1 sequence (O15484 1-343): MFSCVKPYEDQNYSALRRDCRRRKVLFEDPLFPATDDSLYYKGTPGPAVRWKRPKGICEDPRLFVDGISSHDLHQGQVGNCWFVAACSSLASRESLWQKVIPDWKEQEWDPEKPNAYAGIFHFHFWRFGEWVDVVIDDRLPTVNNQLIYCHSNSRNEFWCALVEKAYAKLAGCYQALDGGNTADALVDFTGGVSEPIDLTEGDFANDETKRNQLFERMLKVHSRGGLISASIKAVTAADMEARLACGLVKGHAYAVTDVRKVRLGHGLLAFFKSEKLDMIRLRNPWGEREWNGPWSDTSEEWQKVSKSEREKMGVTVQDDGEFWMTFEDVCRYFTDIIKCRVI


Tests used:
[1] = target: T1, CAPN5-PC (calpain-5 protease core); assay: inhibition of Ac-LLY-AFC hydrolysis by purified CAPN5-PC; type: biochemical
purified protein = substrate: CC(=O)N[C@@H](CC(C)C)C(=O)N[C@@H](CC(C)C)C(=O)N[C@@H](Cc1ccc(O)cc1)C(=O)Nc1ccc2c(C(F)(F)F)cc(=O)oc2c1; assay: purified protein; details: Ca2+ ([…])

| IC50 [1] [nM] | Molecule | Km (purified protein) |
| --- | --- | --- |
| 1200 ± 300 | CC(C)C[C@H](NC(=O)[C@H]1O[C@@H]1C(=O)O)C(=O)NCCCCN=C(N)N [E-64] | – |
| – | CAPN5-PC (calpain-5 protease core) (Homo sapiens) (protein) MFSCVKPYEDQNYSALRRDCRRRKVLFEDPLFPATDDSLYYKGTPGPAVRWKRPKGICEDPRLFVDGISSHDLHQGQVGNCWFVAACSSLASRESLWQKVIPDWKEQEWDPEKPNAYAGIFHFHFWRFGEWVDVVIDDRLPTVNNQLIYCHSNSRNEFWCALVEKAYAKLAGCYQALDGGNTADALVDFTGGVSEPIDLTEGDFANDETKRNQLFERMLKVHSRGGLISASIKAVTAADMEARLACGLVKGHAYAVTDVRKVRLGHGLLAFFKSEKLDMIRLRNPWGEREWNGPWSDTSEEWQKVSKSEREKMGVTVQDDGEFWMTFEDVCRYFTDIIKCRVI | 153 × 10^2 ± 38 μM |
